Measured values: patent publication US12313613B2, “Method of testing crystallinity in amorphous pharmaceutical compositions” (ColVisTec AG, priority 2019, dated 2025)

How the values were obtained:
Type in all cases: physicochemical
[1] = Particle size distribution of the components (Mastersizer laser diffraction)
Procedure: In some cases, the particle size of the dispersion or solution is measured prior to being subjected to UV/vis spectroscopy. Known methods of sizing the dispersion or solution include sieve analysis, direct imaging and laser diffraction. In the present disclosure, a Mastersizer (Malvern Instruments) laser diffraction device was used.

[2] = Off-line XRD crystallinity detection of PRX / Kollidon VA64 mixtures (Bruker instrument); conditions: in Kollidon VA64, milled samples, no crystallinity detected at 25 wt %
Procedure: The samples were analysed by a UV/vis spectrometer in transmission mode (FIG. 1) and an XRD spectrum of the same samples was also obtained for comparison and verification (FIG. 2). The XRD samples required milling and analysis offline whereas UV/vis has the advantages that it can be performed rapidly in-line without milling.
XRD spectra were obtained on a Bruker instrument for each of pure solid PRX, Kollidon VA64, and 20, 25 and 30 wt % PRX mixtures separately. […] Only at 30 wt % PRX loading, well above the maximum solubility when there is substantially higher crystallinity, does the XRD spectra first show peaks that correlate with the pure XRD spectra of PRX.

[3] = In-line UV/vis transmission crystallinity detection of piroxicam in Kollidon VA64 (solubility maximum, twin-screw extruder); conditions: in Kollidon VA64, hot melt extrusion, amorphous, homogeneous and transparent below this loading
Text: A twin-screw extruder was used to assess the solubility maximum for a mixture of the non-steroidal anti-inflammatory drug (NSAID) piroxicam (PRX) and the carrier polymer Kollidon VA64. The mixture was continuously analysed while traversing the extruder screw using a system of in-line UV/vis spectrometers and the input of the PRX was adjusted until crystallinity was first detected.
UV/vis transmission spectra were obtained for 15, 18, 20, 23 and 25 wt % PRX samples.

Row | D10 [1] | D50 [1] | D90 [1] | PRX loading at which XRD spectra first show peaks of crystalline PRX [2] | PRX loading at which the first microcrystalline domains are observed (solubility maximum in carrier) [3] | Structure (SMILES)
1 | 8 μm | 26 μm | 87 μm | – | – | Cc1cc(C#N)cc(C)c1Oc1nc(Nc2ccc(C#N)cc2)nc(N)c1Br [crystalline etravirine (ETR), 4-[6-amino-5-bromo-2-(4-cyanoanilino)pyrimidin-4-yl]oxy-3,5-dimethylbenzonitrile]
2 | – | – | – | 30 wt % | 25 wt % | CN1C(C(=O)Nc2ccccn2)=C(O)c2ccccc2S1(=O)=O [PRX, 4-hydroxy-2-methyl-1,1-dioxo-N-pyridin-2-yl-1$1^6,2-benzothiazine-3-carboxamide]
